The values below come from patent US20250171438A1 (Agios Pharmaceuticals, Inc., priority 2022, published 2025).

For the first experiment, the target named is T1, human PAH with the R408W mutation (Homo sapiens, UniProt P00439, R408W).
T1 construct: expressed in transfected cells
T1 sequence (P00439 1-452 R408W): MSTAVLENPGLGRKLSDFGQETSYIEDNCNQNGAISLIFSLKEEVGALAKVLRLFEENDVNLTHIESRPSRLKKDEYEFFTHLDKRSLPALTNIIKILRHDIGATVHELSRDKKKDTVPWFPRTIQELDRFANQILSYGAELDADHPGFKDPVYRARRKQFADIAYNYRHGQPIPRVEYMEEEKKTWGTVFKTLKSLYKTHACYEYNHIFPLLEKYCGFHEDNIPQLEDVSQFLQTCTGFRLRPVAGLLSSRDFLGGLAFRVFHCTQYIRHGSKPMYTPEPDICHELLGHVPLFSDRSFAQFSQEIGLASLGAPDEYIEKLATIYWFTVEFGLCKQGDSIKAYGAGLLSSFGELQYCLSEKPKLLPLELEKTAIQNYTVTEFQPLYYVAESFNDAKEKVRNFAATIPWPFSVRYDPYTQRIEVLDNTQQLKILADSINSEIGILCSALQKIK
The experiment can be described thus: Cell Based Phenylalanine Flux Assay. The following applies: A375 cells expressing human R408W PAH; 24 hrs compound incubation; 13C-Tyrosine by LC-MS; average where tested multiple times; read-out: AC50. More on the design: scale not given here.
As for `O=C(c1cnc(-c2ccccc2)o1)N1CCc2[nH]cnc2[C@H]1c1nc2ccccc2s1` [Example 1207], the AC50 is < 500 nM.
As for `Cc1ncoc1C(=O)N1CC2(CC2)c2[nH]cnc2[C@H]1c1nc2ccccc2s1` [Example 2152, (S)-(4′-(benzo[d]thiazol-2-yl)spiro[cyclopropane-1,7′-imidazo[4,5-c]pyridin]-5′(1′H,4′H,6′H)-yl)(4-methyloxazol-5-yl)methanone], the AC50 is 500 to 1000 nM.
`O=C(c1cnn2ccccc12)N1CCc2[nH]cnc2[C@@H]1c1nc2ccc(Cl)cc2[nH]1` [Example 937, (R)-(4-(6-chloro-1H-benzo[d]imidazol-2-yl)-6,7-dihydro-1H-imidazo[4,5-c]pyridin-5(4H)-yl)(pyrazolo[1,5-a]pyridin-3-yl)methanone]: the AC50 was in the range of 1000 to 5000 nM.
Regarding `CC(O)(c1nc(C(F)(F)F)c(C(=O)N2CCc3[nH]cnc3[C@@H]2c2nc3ccccc3s2)o1)C1CC1` (single isomer, unassigned) [Example 1564], the AC50 was < 500 nM.
The same measure, in the same setting: with `CC(O)(c1nc(C(F)(F)F)c(C(=O)N2CCc3[nH]cnc3[C@H]2c2nc3ccccc3s2)o1)C1CC1` (single isomer, unassigned) [Example 1561] the figure was < 500 nM.
For `O=C(CC1CC(F)(F)C1)N1CCc2[nH]cnc2[C@@H]1c1nc2ccccc2s1` [Example 1278, (R)-1-(4-(benzo[d]thiazol-2-yl)-6,7-dihydro-1H-imidazo[4,5-c]pyridin-5(4H)-yl)-2-(3,3-difluorocyclobutyl)ethanone], the AC50 lay in the range of 1000 to 5000 nM.
In the case of `Cc1nc(-c2cnn(C)c2)oc1C(=O)N1CCc2[nH]cnc2[C@@H]1c1nc2ccccc2s1` [Example 1375, (R)-(4-(benzo[d]thiazol-2-yl)-6,7-dihydro-1H-imidazo[4,5-c]pyridin-5(4H)-yl)(4-methyl-2-(1-methyl-1H-pyrazol-4-yl)oxazol-5-yl)methanone], the AC50 was in the range of 1000 to 5000 nM.
On to `O=C(c1nnc(-c2ccccn2)o1)N1CCc2[nH]cnc2[C@H]1c1nc2ccccc2s1` [Example 1439], for which the AC50 was < 500 nM.
Still for that read-out and setting: as for `O=C(c1cnn(C(F)F)c1)N1CCc2[nH]cnc2[C@@H]1c1nc2ccccc2s1` [Example 1410, (R)-(4-(benzo[d]thiazol-2-yl)-6,7-dihydro-1H-imidazo[4,5-c]pyridin-5(4H)-yl)(1-(difluoromethyl)-1H-pyrazol-4-yl)methanone], the figure is > 5000 nM.
Turning to `O=C(c1oc(N2CCOCC2)nc1C(F)(F)F)N1CCc2[nH]cnc2[C@@H]1c1nc2c(F)cccc2s1` [Example 1598, (R)-(4-(4-fluorobenzo[d]thiazol-2-yl)-6,7-dihydro-1H-imidazo[4,5-c]pyridin-5(4H)-yl)(2-morpholino-4-(trifluoromethyl)oxazol-5-yl)methanone], the AC50 was < 500 nM.
For the compound `[2H][C@@]1(c2nc3ccccc3s2)c2nc[nH]c2CCN1C(=O)c1ocnc1C` [Example 2159, [(4S)-4-(1,3-benzothiazol-2-yl)-4-deuterio-6,7-dihydro-1H-imidazo[4,5-c]pyridin-5-yl]-(4-methyloxazol-5-yl)methanone], the AC50 is < 500 nM.
On to `Fc1ccc2nc([C@@H]3c4nc[nH]c4CCN3Cc3nccs3)[nH]c2c1` [Example 974, (S)-2-((4-(6-fluoro-1H-benzo[d]imidazol-2-yl)-6,7-dihydro-1H-imidazo[4,5-c]pyridin-5(4H)-yl)methyl)thiazole], for which the AC50 was < 500 nM.
As for `CN(C)CCn1nccc1C(=O)N1CCc2[nH]cnc2[C@H]1c1nc2c(F)cccc2s1` [Example 1761, (S)-(1-(2-(dimethylamino)ethyl)-1H-pyrazol-5-yl)(4-(4-fluorobenzo[d]thiazol-2-yl)-6,7-dihydro-1H-imidazo[4,5-c]pyridin-5(4H)-yl)methanone], the AC50 is 500 to 1000 nM.
Regarding `CC(C)(F)c1ccc2c(C(=O)N3CCc4[nH]cnc4[C@H]3c3nc4ccccc4s3)cnn2c1` [Example 1479], the AC50 was < 500 nM.
Still for that read-out and setting: with `O=C(CC1CC1)N1CCc2[nH]cnc2[C@@H]1c1nc2ccc(Br)cc2s1` [Example 1147, (R)-1-(4-(6-bromobenzo[d]thiazol-2-yl)-6,7-dihydro-1H-imidazo[4,5-c]pyridin-5(4H)-yl)-2-cyclopropylethanone] the figure was 500 to 1000 nM; with `O=C(c1nnc(-c2ccccn2)o1)N1CCc2[nH]cnc2[C@@H]1c1nc2ccc(F)cc2s1` [Example 1719, (R)-(4-(6-fluorobenzo[d]thiazol-2-yl)-6,7-dihydro-1H-imidazo[4,5-c]pyridin-5(4H)-yl)(5-(pyridin-2-yl)-1,3,4-oxadiazol-2-yl)methanone], 1000 to 5000 nM.
Same read-out and setting: as for `N#Cc1nc(N2CCOCC2)oc1C(=O)N1CCc2[nH]cnc2[C@H]1c1nc2ccccc2s1` [Example 1705, (S)-5-(4-(benzo[d]thiazol-2-yl)-4,5,6,7-tetrahydro-1H-imidazo[4,5-c]pyridine-5-carbonyl)-2-morpholinooxazole-4-carbonitrile], the figure is 500 to 1000 nM.
As for `CC(C)(F)c1ncc(C(=O)N2CCc3[nH]cnc3[C@@H]2c2nc3c(F)cccc3s2)o1` [Example 1488, (R)-(4-(4-fluorobenzo[d]thiazol-2-yl)-6,7-dihydro-1H-imidazo[4,5-c]pyridin-5(4H)-yl)(2-(2-fluoropropan-2-yl)oxazol-5-yl)methanone], the AC50 fell in the range of 500 to 1000 nM.
For `CC(C)(C)c1ncc(C(=O)N2CCc3[nH]cnc3[C@@H]2c2nc3ccccc3s2)o1` [Example 1428, (R)-(4-(benzo[d]thiazol-2-yl)-6,7-dihydro-1H-imidazo[4,5-c]pyridin-5(4H)-yl)(2-(tert-butyl)oxazol-5-yl)methanone], the AC50 was 500 to 1000 nM.
On to `Cn1nc(C(C)(C)C#N)nc1C(=O)N1CCc2[nH]cnc2[C@H]1c1nc2c(F)cccc2s1` [Example 2047, (S)-2-(5-(4-(4-fluorobenzo[d]thiazol-2-yl)-4,5,6,7-tetrahydro-1H-imidazo[4,5-c]pyridine-5-carbonyl)-1-methyl-1H-1,2,4-triazol-3-yl)-2-methylpropanenitrile], for which the AC50 was 500 to 1000 nM.
On the same count and under the same terms, as for `O=C(c1ccno1)N1CCc2[nH]cnc2[C@@H]1c1nc2cc(F)ccc2s1` [Example 2154, (R)-(4-(5-fluorobenzo [d]thiazol-2-yl)-6,7-dihydro-1H-imidazo[4,5-c]pyridin-5(4H)-yl)(isoxazol-5-yl)methanone], the figure is > 5000 nM; as for `O=C(c1nnc(OCCC(F)(F)F)o1)N1CCc2[nH]cnc2[C@@H]1c1nc2ccccc2s1` [Example 1789, (R)-(4-(benzo[d]thiazol-2-yl)-6,7-dihydro-1H-imidazo[4,5-c]pyridin-5(4H)-yl)(5-(3,3,3-trifluoropropoxy)-1,3,4-oxadiazol-2-yl)methanone], 1000 to 5000 nM.

The experiment is the same for the next values; noted with them: A375 cells expressing human R408W PAH; 24 hrs with compound; 13C-Tyrosine by LC-MS; average where tested multiple times.
Take `Cn1cc(-c2nc(C(F)(F)F)c(C(=O)N3CCc4[nH]cnc4[C@@H]3c3nc4ccccc4s3)o2)cn1` (single isomer, unassigned): the AC50 result was “E, E”.
Take `O=C(c1c(C(F)(F)F)nn2ccccc12)N1CCc2[nH]cnc2[C@H]1c1nc2ccccc2s1` (single isomer, unassigned): the AC50 result is listed as “E, E”.

Still in this experiment, the particulars now being: A375 cells expressing human R408W PAH; 24 hrs with compound; 13C-Tyrosine by LC-MS; average where tested multiple times; read-out: AC50.
With `O=C(CCc1nccs1)N1CCc2nc[nH]c2C1c1nc2cccc(Cl)c2[nH]1` (stereo not shown), the concentration at half-maximal activity (AC50) fell in the range of 1000 to 5000 nM.
In the case of `Cc1nnc(CCC(=O)N2CCc3[nH]cnc3C2c2nc3ccc(Br)cc3[nH]2)s1` (stereo not shown), the AC50 was > 5000 nM.
For `O=C(Cc1nc(C(F)(F)F)cs1)N1CCc2[nH]cnc2C1c1nc2ccc(Br)cc2[nH]1` (stereo not shown), the AC50 lay in the range of 1000 to 5000 nM.
For the compound `O=C(c1cc2ccccn2c1)N1CCc2[nH]cnc2C1c1nc2ccccc2s1` (stereo not shown), the AC50 was > 5000 nM.
On the same count and under the same terms, as for `N#Cc1n[nH]cc1C(=O)N1CCc2[nH]cnc2C1c1nc2ccccc2s1` (stereo not shown), the figure is 1000 to 5000 nM.
For `O=C(c1cc2cccnn2c1)N1CCc2[nH]cnc2[C@H]1c1nc2ccccc2[nH]1` [(S)-(4-(1H-benzo[d]imidazol-2-yl)-1,4,6,7-tetrahydro-5H-imidazo[4,5-c]pyridin-5-yl)(pyrrolo[1,2-b]pyridazin-6-yl)methanone], the AC50 is > 5000 nM.
For `CC(=O)Cn1cc(C(=O)N2CCc3[nH]cnc3C2c2nc3c(F)cccc3s2)cn1` (stereo not shown), the AC50 lay within 1000 to 5000 nM.
As to `O=C(c1n[nH]c2ccccc12)N1CCc2[nH]cnc2C1c1nc2ccc(F)cc2s1` (stereo not shown), the AC50 was > 5000 nM.
The same measure, in the same setting: as for `CC1CN(C(=O)c2nnc(C(C)(C)O)o2)C(c2nc3ccccc3s2)c2nc[nH]c21` (stereo not shown), the figure is > 5000 nM; as for `CC(C)(O)c1nc(C(=O)N2CCc3[nH]cnc3C2c2nc3c(F)cccc3s2)no1` (stereo not shown), 1000 to 5000 nM.
The same measure, in the same setting: as for `O=C(c1cnc(C2CCC(F)(F)CC2)s1)N1CCc2[nH]cnc2C1c1nc2ccccc2s1` (stereo not shown), the figure is 500 to 1000 nM; as for `CN(C)CCn1ncc(C(=O)N2CCc3[nH]cnc3C2c2nc3ccccc3s2)c1C#N` (stereo not shown), > 5000 nM.
Turning to `O=C(C1CC1)N1CCc2[nH]cnc2C1c1nc2ccc(F)cc2[nH]1` (stereo not shown), the AC50 was 1000 to 5000 nM.
Regarding `Cc1ncoc1C(=O)N1CC2(CC2)c2[nH]cnc2C1c1nc2c(F)cccc2s1` (stereo not shown), the AC50 was 1000 to 5000 nM.
With `O=C(c1nc2ccccc2s1)N1CCc2[nH]cnc2C1c1nc2ccc(F)cc2[nH]1` (stereo not shown), the AC50 was > 5000 nM.
As to `Cn1nc(COC(F)(F)F)cc1C(=O)N1CCc2[nH]cnc2C1c1nc2c(F)cccc2s1` (stereo not shown), the AC50 was in the range of 1000 to 5000 nM.

For orientation: AC50 means the midpoint of the concentration-response curve, whichever way the signal moves.
